Reference: patent publication US11249100B2, “Modular robotic systems for delivering fluid to microfluidic devices” (Worcester Polytechnic Institute, priority 2018, dated 2022)
Entries after “also recorded” stand apart in the source; their conditions may differ.

Tests used:
AWA chemosensory neurons [1] = test: Automated diacetyl odor dose response, GCaMP calcium imaging; assay type: in vivo, C. elegans
ASER chemosensory neuron = conditions: ASER::GCaMP; downshift from base 40 mM NaCl; triplicate pulses
Procedure: Salt solutions (0-40 mM) were prepared by diluting S. Basal buffer (100 mM NaCl) with an iso-osmotic buffer of 186 mM glycerol.
Either the input stimulus (in, fluorescein for visualization) or buffer can bathe the animals depending on which control channel flows (c1 for input, c2 for buffer). […] Triplicate pulses (10 s) are delivered once per minute at a given concentration, followed by an increase in concentration with a delay of ˜45 s.
Animals expressing GCaMP in the ASER chemosensory neuron, which responds to salt downshifts, were stimulated with triplicate repeat pulses of NaCl, decreasing from a base 40 mM NaCl to a variable level from 40 mM (0 change) to 0 mM (−40 mM change).

AWA chemosensory neurons [2] = test: Automated solvent screen: optogenetically (Chrimson) evoked GCaMP calcium responses in living nematodes; assay type: in vivo, C. elegans; conditions: for effect on peak fluorescent responses to Chrimson-induced activation: <1 min exposure, compared to prior buffer control, 20 young adult animals; for persistence of suppression after returning to buffer fluid: alternating buffer control wells after solvent wells
Procedure: The C. elegans strain NZ1091 was integrated by irradiation and backcrossed at least 10×. Animals were grown and maintained at 20° C. on NGM plates with OP50 E. coli bacteria. At least 12 hrs prior to experimentation, L4 stage C. elegans were picked and transferred to 50 μM All Trans Retinal (ATR) in OP50 E. coli spotted onto an unseeded NGM plate. For the dose response experiment, C. elegans were selected as L4s the day before and tested as young adults the next day.
All solvents were prepared in Eppendorf tubes at 1% and 5% v/v concentrations to 1 mL in paralysis buffer (S. Basal buffer without cholesterol containing the acetylcholine agonist 1 mM (−)-tetramisole hydrochloride) and vortexed to mix for 30 s-1 min. Solvent dilutions were transferred to a 96 deep well plate (700µL/well). Alternating control wells were filled with 100 ng/mL fluorescein in paralysis buffer to visualize alternating solution delivery. Animals were exposed to paralysis buffer flow for ˜1-2 hrs prior to solvent delivery to keep animals stationary during recording. The 96 well plate was loaded with solvent solutions by hand the hour before recording and sealed with adhesive film (Glad® Press-n-Seal).
Methods followed those described previously. About 20-30 animals co-expressing GCaMP and Chrimson in the AWA chemosensory neuron pair were loaded into a modified high-throughput microfluidic imaging device optimized for 4× magnification with only the inlet, back pressure, worm loading, and outlet port(s) punched. Optical configurations were customized using an ASI RAMM frame and commercially available components for low-magnification wide-filed GCaMP excitation (4×/0.28 NA), compatible with Chrimson excitation, and high-resolution (1024×1024) 10 fps image acquisition. In addition to the optical set up described above, a 617 nm Mightex LED was mounted beneath the RAMM stage with an additional cube housing a 590 LP excitation dichroic to pass uniform Chrimson activation across the entire field of view. At each inlet well position, animals were exposed to solution for <1 min total, during which a 30 s delay was programmed to sufficiently fill the tubing after each well transfer for serially delivered solutions. Then, an immediate acquisition of 15 s (10 frames/s, 10 ms blue light pulse, 10 ms delay, 2×2 binning) began with a 617 nm light presence for 5 s (from 2.5 s to 7.5 s). Custom scripts were used for quantifying neuron fluorescence (Neurotracker ImageJ macro) and MATLAB17a for data analysis and visualization.
The robotic system was used to screen 14 different solvents at two concentrations (1% and 5%) for their effects on optogenetically-evoked neural responses. Solvent dilutions were prepared in a 96-well plate alternating with buffer control wells (FIG. 8A). A previously established high-throughput imaging device was used to record calcium signals from individual neurons of 20-25 young adult animals (FIG. 8B). Animals co-expressed the red-shifted channelrhodopsin (Chrimson) and the genetically encoded calcium sensor (GCaMP2.2b) in the AWA chemosensory neurons (FIG. 8C), allowing simultaneous optical stimulation and monitoring of neural responses.

[3] = 1% v/v solvent in paralysis buffer
[4] = 5% v/v solvent in paralysis buffer

Structure (SMILES)	effect on peak fluorescent responses to Chrimson-induced activation (AWA chemosensory neurons [2]; [3])	effect on peak fluorescent responses to Chrimson-induced activation (AWA chemosensory neurons [2]; [4])	persistence of suppression after returning to buffer fluid (AWA chemosensory neurons [2])	other results
CC(=O)C(C)=O [diacetyl]	–	–	–	diacetyl concentration giving a minimal but robust odor response in AWA (AWA chemosensory neurons [1]; AWA::GCaMP young adults, triplicate odor pulses once per minute): 0.1 µM; odor-evoked neural responses versus concentration (AWA chemosensory neurons [1]; AWA::GCaMP, diacetyl from 0.1 μM to 1 mM): strengthened with increasing odor concentration
[Cl-].[Na+] [NaCl]	–	–	–	NaCl shift giving a minimal but robust response in ASE (ASER chemosensory neuron): shift from 40 mM to 35 mM
CO [methanol]	significantly suppressed	significantly suppressed; also recorded: most significant suppressive effects	transient	–
C[S+](C)[O-] [DMSO]	variable and weakly suppressed responses; also recorded: weaker suppressive effects	–	–	–
CCO [ethanol]	–	variable and weakly suppressed responses; also recorded: most significant suppressive effects	–	–
CC(C)O [isopropanol]	significantly suppressed	significantly suppressed; also recorded: most significant suppressive effects	transient	effect on optogenetically-evoked neural responses (AWA chemosensory neurons [2]; solvents at 1% and 5%, concentration not separated): suppression of optogenetic stimulation
CN(C)C=O [DMF]	weaker suppressive effects	–	–	–
CC(C)=O [acetone]	–	weaker suppressive effects	–	–
CC#N [acetonitrile]	–	significantly suppressed; also recorded: most significant suppressive effects	transient	–
